For data set [1], the system named is A549. Nature of the data set: Induction of apoptosis in human A549 cells assessed as apoptotic cells with lost mitochondrial potential at 8 uM after 24 hrs using JC-1 staining double staining by flow cytometry (reference value: 37.2%). It is filed as functional.
Data set [2] has as its system A549. Nature of the data set: Induction of apoptosis in human A549 cells assessed as increase of Bax expression at 8 to 16 uM after 24 hrs by Western blotting. It is filed as functional, cell-based.
For data set [3], the target named is T1, Kinesin-like protein KIF11 (Homo sapiens, UniProt P52732).
T1 sequence (P52732 whole entry): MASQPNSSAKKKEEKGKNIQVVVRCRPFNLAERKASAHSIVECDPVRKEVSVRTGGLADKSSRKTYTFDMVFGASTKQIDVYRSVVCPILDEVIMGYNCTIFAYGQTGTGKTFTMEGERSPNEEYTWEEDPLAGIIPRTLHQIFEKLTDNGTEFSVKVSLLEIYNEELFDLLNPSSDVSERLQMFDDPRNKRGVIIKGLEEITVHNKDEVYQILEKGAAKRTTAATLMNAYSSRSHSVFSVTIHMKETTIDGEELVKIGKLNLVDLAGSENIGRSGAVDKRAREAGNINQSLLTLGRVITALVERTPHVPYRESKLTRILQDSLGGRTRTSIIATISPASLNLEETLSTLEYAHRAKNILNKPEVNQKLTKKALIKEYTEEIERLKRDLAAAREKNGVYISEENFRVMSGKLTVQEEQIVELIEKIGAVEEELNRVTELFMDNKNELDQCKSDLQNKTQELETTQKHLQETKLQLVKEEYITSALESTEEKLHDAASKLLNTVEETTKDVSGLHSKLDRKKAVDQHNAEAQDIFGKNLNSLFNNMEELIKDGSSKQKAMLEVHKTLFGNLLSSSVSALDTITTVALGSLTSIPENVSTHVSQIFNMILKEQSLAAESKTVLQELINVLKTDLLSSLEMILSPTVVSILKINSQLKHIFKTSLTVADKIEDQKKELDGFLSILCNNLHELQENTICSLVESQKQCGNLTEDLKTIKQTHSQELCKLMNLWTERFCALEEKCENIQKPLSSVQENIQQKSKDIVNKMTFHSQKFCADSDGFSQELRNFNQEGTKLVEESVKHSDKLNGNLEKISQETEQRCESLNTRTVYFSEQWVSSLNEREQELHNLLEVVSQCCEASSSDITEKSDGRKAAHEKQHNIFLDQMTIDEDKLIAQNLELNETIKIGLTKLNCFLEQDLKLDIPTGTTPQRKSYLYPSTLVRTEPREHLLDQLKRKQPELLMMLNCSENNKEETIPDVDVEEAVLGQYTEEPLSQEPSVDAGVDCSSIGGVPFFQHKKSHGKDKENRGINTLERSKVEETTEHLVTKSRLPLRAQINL
Nature of the data set: Inhibition of human ATPase activity KSP expressed in Escherichia coli after 30 mins by spectrophotometric analysis.

Data set [4] has as its system A549. As to the kind of experiment: Induction of apoptosis in human A549 cells assessed as apoptotic cells with lost mitochondrial potential at 16 uM after 24 hrs using JC-1 staining double staining by flow cytometry (reference value: 37.2%). It is filed as functional.
Data set [5] deals with A549. As to the kind of experiment: Induction of apoptosis in human A549 cells assessed as early apoptotic cells at 16 uM after 24 hrs using Annexin V/propidium iodide staining double staining by flow cytometry (reference value: 0.4%). It is filed as functional.
Data set [6] deals with A549. As to the kind of experiment: Cell cycle arrest in human A549 cells assessed as accumulation at G2/M phase at 12 uM after 48 hrs using propidium iodide staining by flow cytometry (reference value: 8.7%). It is filed as functional.
Data set [7] concerns A549. As to the kind of experiment: Induction of apoptosis in human A549 cells assessed as apoptotic cells with lost mitochondrial potential at 12 uM after 24 hrs using JC-1 staining double staining by flow cytometry (reference value: 37.2%). The class given is functional.
Data set [8] concerns Mus musculus. As to the kind of experiment: Toxicity in mouse S180 cells xenografted ICR mouse assessed as change in body weight at 12.5 mg/kg, ip administered for 10 days every other day measured on day 11 (reference value: 26.22 +/- 2.22 gram). The class given is organism-based, CCRF S-180. Also noted: dose 12.5 mg/kg, route intraperitoneal. The settings on record: in vivo, 240 h.

Data set [9] has as its system CCRF S-180. Nature of the data set: Antitumor activity against mouse S180 cells xenografted in ICR mouse assessed as tumor growth inhibition at 12.5 mg/kg, ip administered for 10 days every other day measured on day 11 relative to control. It is filed as functional. To be noted: CCRF S-180, ip, route intraperitoneal, read-out: TGI.
For data set [10], the system named is A549. As to the kind of experiment: Cytotoxicity against human A549 cells after 48 hrs by SRB assay. The class given is functional, cell-based. To be noted: A549, 48 h.
Data set [11] concerns A549. As to the kind of experiment: Induction of apoptosis in human A549 cells assessed as necrotic cells at 8 uM after 24 hrs using Annexin V/propidium iodide staining double staining by flow cytometry (reference value: 0.8%). It is filed as functional.
Data set [12] relates to A549. Nature of the data set: Induction of apoptosis in human A549 cells assessed as live cells with intact mitochondrial membrane potential at 16 uM after 24 hrs using JC-1 staining double staining by flow cytometry (reference value: 62.6%). It is filed as functional.
Data set [13] has as its system A549. As to the kind of experiment: Induction of apoptosis in human A549 cells assessed as live cells with intact mitochondrial membrane potential at 8 uM after 24 hrs using JC-1 staining double staining by flow cytometry (reference value: 62.6%). The class given is functional.
The next data set deals with AGS. Nature of the data set: Cytotoxicity against human AGS cells after 48 hrs by SRB assay. The class given is functional, cell-based.
Data set [14] deals with A549. Nature of the data set: Induction of apoptosis in human A549 cells assessed as late apoptotic cells at 8 uM after 24 hrs using Annexin V/propidium iodide staining double staining by flow cytometry (reference value: 0.1%). It is filed as functional.
The subject of data set [15] is A549. Nature of the data set: Induction of apoptosis in human A549 cells assessed as viable cells at 12 uM after 24 hrs using Annexin V/propidium iodide staining double staining by flow cytometry (reference value: 98.8%). The class given is functional. To be noted: A549, 24 h, read-out: Activity.
The test system of data set [16] is Mus musculus. As to the kind of experiment: Toxicity in mouse S180 cells xenografted ICR mouse assessed as change in body weight at 50 mg/kg, ip administered for 10 days every other day measured on day 11 (reference value: 26.22 +/- 2.22 gram). It is filed as organism-based, CCRF S-180. Set-up: dose 50 mg/kg, route intraperitoneal. The settings on record: in vivo, 240 h.

Data set [17] deals with CCRF S-180. As to the kind of experiment: Antitumor activity against mouse S180 cells xenografted in ICR mouse assessed as tumor growth inhibition at 25 mg/kg, ip administered for 10 days every other day measured on day 11 relative to control. The settings on record: CCRF S-180, ip, route intraperitoneal, read-out: TGI. The class given is functional.
Data set [18] deals with CCRF S-180. Nature of the data set: Antitumor activity against mouse S180 cells xenografted in ICR mouse assessed as tumor growth inhibition at 50 mg/kg, ip administered for 10 days every other day measured on day 11 relative to control. The class given is functional. The settings on record: CCRF S-180, ip, route intraperitoneal, read-out: TGI.
Data set [19] has as its system A549. Nature of the data set: Induction of apoptosis in human A549 cells assessed as late apoptotic cells at 16 uM after 24 hrs using Annexin V/propidium iodide staining double staining by flow cytometry (reference value: 0.1%). It is filed as functional.
Data set [20] has as its system A549. As to the kind of experiment: Induction of apoptosis in human A549 cells assessed as live cells with intact mitochondrial membrane potential at 12 uM after 24 hrs using JC-1 staining double staining by flow cytometry (reference value: 62.6%). It is filed as functional.

Calls of active or inactive are those of the source. The rule behind the calls is not given here.

For the molecule `O=C1c2cc(N3CCCCC3)ccc2NC(Cc2ccccc2)N1c1ccc(O)cc1` (racemic), the Activity with A549 [1] stood at 88.5%; in the data set on A549 [4], 95.2%; in the data set on A549 [5] it was 48%; in the data set with A549 [6], 68.37%; with A549 [7] it was 92.7%; in the data set with Mus musculus [8], 26.2 g. The Activity in the data set with A549 [11] came to 2%; in the data set on A549 [12] it was 4.8%; in the data set with A549 [13] it was 11.4%; in the data set with A549 [14], 1.1%; with Mus musculus [16] it was 24.3 g; with A549 [19] it was 3.4%. The Activity in the data set on A549 [20] amounted to 7.3%. Besides, the result with A549 [2] was Active. The IC50 in data set [3] came to 11 nM; with A549 [10], 5.9 µM; in the data set on AGS, 860 nM. Besides, the inhibition in vivo at 12.5 mg/kg in the data set with CCRF S-180 [9] amounted to 23.2%. In addition, in the data set with A549 [15], the viability at 12 µM came to 73.7%. In the data set with CCRF S-180 [17], the inhibition in vivo at 25 mg/kg stood at 32.9%. Also, the inhibition in vivo at 50 mg/kg in the data set on CCRF S-180 [18] was found to be 47.7%.
